According to patent US10669272B2, “Substituted naphthyridinone compounds useful as T cell activators” (BRISTOL-MYERS SQUIBB COMPANY, priority 2018, dated 2020):
Read-outs that look alike come from different tables or passages of the source.

Legend:
[1] = biological target: T1, human DGKα (Homo sapiens, UniProt P23743); test: DGKα LIPGLO assay (extruded liposome substrate), in vitro DGK inhibition; assay type: biochemical; conditions: read-out: DGKa LIPGLO IC50
T1 construct: TVMV protease cleavage site (C); Hexa-His (C); made in house; host or cells: Sf9 insect cells (baculovirus, Bac-to-Bac)
T1 sequence (P23743 with tags, fused parts or gaps): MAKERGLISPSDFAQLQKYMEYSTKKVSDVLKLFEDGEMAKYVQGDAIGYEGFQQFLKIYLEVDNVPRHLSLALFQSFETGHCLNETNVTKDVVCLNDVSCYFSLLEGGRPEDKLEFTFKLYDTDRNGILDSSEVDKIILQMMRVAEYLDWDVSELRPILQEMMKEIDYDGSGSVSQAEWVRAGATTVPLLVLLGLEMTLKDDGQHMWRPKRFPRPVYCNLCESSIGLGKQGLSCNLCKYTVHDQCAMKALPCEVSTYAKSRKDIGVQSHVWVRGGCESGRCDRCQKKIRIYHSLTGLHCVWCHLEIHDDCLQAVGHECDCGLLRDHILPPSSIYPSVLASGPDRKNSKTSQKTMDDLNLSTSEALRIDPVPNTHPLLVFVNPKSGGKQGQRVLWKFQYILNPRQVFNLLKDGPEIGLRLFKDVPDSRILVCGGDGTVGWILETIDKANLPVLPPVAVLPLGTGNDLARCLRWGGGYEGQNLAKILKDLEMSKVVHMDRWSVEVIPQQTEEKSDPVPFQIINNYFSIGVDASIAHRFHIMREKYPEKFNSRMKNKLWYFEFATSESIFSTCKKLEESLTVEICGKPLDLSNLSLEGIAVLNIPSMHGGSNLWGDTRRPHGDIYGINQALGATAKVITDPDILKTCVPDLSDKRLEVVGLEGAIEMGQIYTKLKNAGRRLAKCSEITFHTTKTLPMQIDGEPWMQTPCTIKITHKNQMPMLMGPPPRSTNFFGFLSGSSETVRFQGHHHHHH

[2] = biological target: T2, human DGKζ (Homo sapiens, UniProt Q13574); test: DGKζ LIPGLO assay (extruded liposome substrate), in vitro DGK inhibition; assay type: biochemical; conditions: read-out: DGKz LIPGLO IC50
T2 construct: TVMV protease cleavage site (C); Hexa-His (C); made in house; host or cells: Sf9 insect cells (baculovirus, Bac-to-Bac)
T2 sequence (Q13574 with tags, fused parts or gaps isoform Q13574-4): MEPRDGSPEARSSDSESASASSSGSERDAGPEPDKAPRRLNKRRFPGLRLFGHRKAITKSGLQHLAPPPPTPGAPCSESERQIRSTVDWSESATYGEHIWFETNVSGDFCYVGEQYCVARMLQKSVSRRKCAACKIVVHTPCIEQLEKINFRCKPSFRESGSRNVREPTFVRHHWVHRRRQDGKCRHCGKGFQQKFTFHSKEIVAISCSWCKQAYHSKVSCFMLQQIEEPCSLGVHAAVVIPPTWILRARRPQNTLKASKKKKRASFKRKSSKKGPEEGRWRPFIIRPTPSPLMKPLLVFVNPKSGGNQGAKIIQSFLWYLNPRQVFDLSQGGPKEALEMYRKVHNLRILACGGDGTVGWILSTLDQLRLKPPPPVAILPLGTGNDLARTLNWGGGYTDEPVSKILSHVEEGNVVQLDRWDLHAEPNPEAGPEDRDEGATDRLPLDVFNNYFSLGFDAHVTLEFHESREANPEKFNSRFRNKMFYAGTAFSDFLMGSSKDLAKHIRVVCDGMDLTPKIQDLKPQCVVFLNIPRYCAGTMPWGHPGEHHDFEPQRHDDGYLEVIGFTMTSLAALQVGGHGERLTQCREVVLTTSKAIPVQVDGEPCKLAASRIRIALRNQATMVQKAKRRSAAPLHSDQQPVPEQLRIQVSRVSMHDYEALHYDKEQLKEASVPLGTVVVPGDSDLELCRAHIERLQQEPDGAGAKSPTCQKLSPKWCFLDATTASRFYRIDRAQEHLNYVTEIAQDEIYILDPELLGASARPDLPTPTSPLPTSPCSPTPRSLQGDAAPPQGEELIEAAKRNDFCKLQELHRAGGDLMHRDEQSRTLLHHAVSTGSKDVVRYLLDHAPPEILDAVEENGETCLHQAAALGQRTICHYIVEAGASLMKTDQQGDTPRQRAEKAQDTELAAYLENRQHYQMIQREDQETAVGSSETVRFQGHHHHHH

[3] = tested on: Human venous whole blood; test: Human whole blood IFN-γ assay; assay type: cell-based; conditions: human whole blood, read-out: INFg Whole Blood Normalized Agonist EC50;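 also: blood from healthy donors exposed to compound for 1 h before stimulation with anti-CD3 and anti-CD28 at 1 µg/mL each, IFN-γ quantified in supernatant by AlphaLISA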
[4] = normalized to 3 μM reference compound with anti-CD3 plus anti-CD28 as 100% activation
[5] = Homo sapiens, 24 h, normalized to 3 μM reference compound with anti-CD3 plus anti-CD28 as 100% activation
[6] = Homo sapiens, 24 h, anti-CD3 plus anti-CD28, 24 hours, 3 μM reference compound = 100% activation

IC50 ([1]; liposome (LIPGLO) assay)	IC50 ([2]; liposome (LIPGLO) assay)	IC50 ([1]; DGKα liposome (LIPGLO) assay)	IC50 ([2]; DGKζ liposome (LIPGLO) assay)	SMILES	EC50 [3, 4]	EC50 [3, 5]	EC50 [3, 6]
2.2 µM	1.4 µM			CC(C)c1ccc(C(C)N2C[C@H](C)N(c3cc(=O)n(C)c4ccc(C#N)nc34)C[C@H]2C)cc1 (single isomer, unassigned) [Example 1234]	5.4 µM		
0.029 µM	1 µM			C[C@@H]1CN(c2cc(=O)n(C)c3ccc(C#N)nc23)[C@@H](C)CN1C(c1ccc(F)cn1)c1ccc(F)cn1 [Example 407, 8-((2S,5R)-4-(bis(5-fluoropyridin-2-yl)methyl)-2,5-dimethylpiperazin-1-yl)-5-methyl-6-oxo-5,6-dihydro-1,5-naphthyridine-2-carbonitrile]		20 µM	
1.8 µM	14 µM			C[C@@H]1CN(c2cc(=O)[nH]c3ccc(C#N)nc23)[C@@H](C)CN1C(c1ccc(F)cc1)c1ccc(C#N)cc1 (stereo partly drawn) [Example 1336, 8-((2S,5R)-4-((4-cyanophenyl)(4-fluorophenyl)methyl)-2,5-dimethylpiperazin-1-yl)-6-oxo-5,6-dihydro-1,5-naphthyridine-2-carbonitrile]		11 µM	
0.12 µM	0.47 µM			CC(c1ccc(OC(F)(F)F)c(F)c1)N1C[C@H](C)N(c2cc(=O)n(C)c3ccc(C#N)nc23)C[C@H]1C (single isomer, unassigned) [Example 1269]	0.54 µM		
		0.92 µM	2 µM	C[C@@H]1CN(c2c(C#N)c(=O)n(C)c3ccc(C#N)nc23)[C@@H](C)CN1C(c1ccc(F)cc1)c1ncccc1F (single isomer, unassigned) [Example 820]			2.2 µM
1.8 µM	8.2 µM			C[C@@H]1CN(c2cc(=O)[nH]c3ccc(C#N)nc23)[C@@H](C)CN1C(c1ccc(F)cc1)c1ccc(C#N)cc1 (single isomer, unassigned) [Example 1337]		2.7 µM	
1.5 µM	0.39 µM			CC(C)Oc1ccc(C(c2cccc(F)c2)N2C[C@H](C)N(c3cc(=O)n(C)c4ccc(C#N)nc34)C[C@H]2C)nc1 (stereo partly drawn) [Example 690]		3.5 µM	
0.16 µM	0.5 µM			COc1ccc(C(C)N2C[C@H](C)N(c3cc(=O)n(C)c4ccc(C#N)nc34)C[C@H]2C)nc1 (single isomer, unassigned) [Example 644]	3.8 µM		
0.46 µM	1.7 µM			CC[C@H]1CN(C(C)c2ccc(OC(F)(F)F)cc2F)[C@H](CC)CN1c1cc(=O)n(C)c2ccc(C#N)nc12 (single isomer, unassigned) [Example 1372]	1.4 µM		
0.042 µM	0.059 µM			CC[C@H]1CN(C(c2ccc(F)cc2)c2ccc(C(F)(F)F)cn2)[C@H](CC)CN1c1cc(=O)n(C)c2ccc(C#N)nc12 (stereo partly drawn) [Example 1040]	0.057 µM		
		6.4 µM	110 µM	C[C@@H]1CN(c2c(C#N)c(=O)n(C)c3ccc(C#N)nc23)CCN1Cc1ccc(-c2ccccc2)cc1 [Example 994]			20 µM
0.021 µM	13 µM			C[C@@H]1CN(c2cc(=O)n(C)c3ccc(C#N)nc23)[C@@H](C)CN1Cc1ccc(OC(F)(F)F)cc1 [Example 609]		2.2 µM	
2 µM	0.13 µM			CC(c1ccc2c(c1)OC(F)(F)O2)N1C[C@H](C)N(c2cc(=O)n(C)c3ccc(C#N)nc23)C[C@H]1C (single isomer, unassigned) [Example 654]	0.4 µM		
0.14 µM	0.26 µM			CCOc1cc(F)c(CN2C[C@H](C)N(c3cc(=O)n(C)c4ccc(C#N)nc34)C[C@H]2C)c(F)c1 [Example 1275]		0.19 µM	
7.8 µM	1.8 µM			CCC(c1ccc(OC(F)(F)F)cc1F)N1C[C@H](C)N(c2cc(=O)n(C)c3ccc(C#N)nc23)C[C@H]1CC (single isomer, unassigned) [Example 421]	2.6 µM		
0.11 µM	1.8 µM			CC[C@H]1CN(C(c2ccc(Cl)cc2)c2ccc(F)cn2)[C@H](C)CN1c1cc(=O)n(C)c2ccc(C#N)nc12 (single isomer, unassigned) [Example 1129]		0.41 µM	
